One series deals with T1, human mGlu2 receptor (Homo sapiens, UniProt Q14416).
T1 construct: expressed in transfected cells; host or cells: CHO cells (membrane preparation)
Nature of the series: [35S]GTPγS binding assay (mGluR2 negative allosteric modulation). It counts as biochemical. Particulars: for IC50: membranes from CHO cells transfected with human mGlu2 receptor, glutamate 60 μM, pIC50 = −log IC50 (M), read-out: GTPγS - hmGluR2 anGT pIC50 (converted); for Emax / GTPγS - hmGluR2 anGT Emax: relative maximal effect: maximal % inhibition relative to the control glutamate response; for Emax: read-out: GTPγS - hmGluR2 anGT Emax. As for the experimental part:
1) [^35S]GTPγS binding assay
The [^35S]GTPγS binding assay is a functional membrane-based assay used to study G-protein coupled receptor (GPCR) function whereby incorporation of a non-hydrolysable form of GTP, [^35S]GTPγS (guanosine 5′-triphosphate, labelled with […] ^35S), is measured. The G-protein a subunit catalyzes the exchange of guanosine 5′-diphosphate (GDP) by guanosine triphosphate (GTP) and on activation of the GPCR by an agonist, [^35S]GTPγS, becomes incorporated and cannot be cleaved to continue the exchange cycle (Harper (1998) Current Protocols in Pharmacology 2.6.1-10, John Wiley & Sons, Inc.). […] Here we describe the use of the [^35S]GTPγS binding assay using membranes from cells transfected with the human mGlu2 receptor and adapted from Schaffhauser et al. (Molecular Pharmacology, 2003, […]) for the detection of the negative allosteric modulation (NAM) properties of the compounds of this invention.
CHO-cells were cultured to pre-confluence and stimulated with 5 mM butyrate for 24 h. Cells were then collected by scraping in PBS and cell suspension was centrifuged (10 min at 4000 RPM in benchtop centrifuge). Supernatant was discarded and pellet gently resuspended in 50 mM Tris-HCl, pH 7.4 by mixing with an Ultra Turrax homogenizer. The suspension was centrifuged at 12,400 RPM (Sorvall F14S-6x250Y) for 10 minutes and the supernatant discarded. The pellet was homogenized in 5 mM Tris-HCl, pH 7.4 using an Ultra Turrax homogenizer and centrifuged again (13,000 RPM, 20 min, 4° C.). The final pellet was resuspended in 50 mM Tris-HCl, pH 7.4 and stored at −80° C. in appropriate aliquots before use. Protein concentration was determined by the Bradford method (Bio-Rad, USA) with bovine serum albumin as standard.
Measurement of mGluR2 negative allosteric modulatory activity of test compounds was performed as follows. Test compounds and glutamate were diluted in assay buffer containing 10 mM HEPES acid, 10 mM HEPES salt, pH 7.4, 100 mM NaCl, 3 mM MgCl2 and 10 μM GDP. Human mGlu2 receptor-containing membranes were thawed on ice and diluted in assay buffer supplemented with 18 μg/ml saponin. […] After addition of [^35S]GTPγS (f.c. 0.1 nM), assay mixtures were shaken briefly and further incubated to allow [^35S]GTPγS incorporation on activation (30 minutes, 30° C.). Final assay mixtures contained 7 μg of membrane protein in 10 mM HEPES acid, 10 mM HEPES salt, pH 7.4, 100 mM NaCl, 3 mM MgCl2, 10 μM GDP and 10 μg/ml saponin. Total reaction volume was 200 μl. Reactions were terminated by rapid filtration through Unifilter-96 GF/B plates (Perkin Elmer, Massachusetts, USA) using a 96-well filtermate universal harvester. Filters were washed 6 times with ice-cold 10 mM NaH2PO4/10 mM Na2HPO4, pH 7.4. Filters were then air-dried, and 30 μl of liquid scintillation cocktail (Microscint-O) was added to each well. Membrane-bound radioactivity was counted in a Topcount.
The concentration-response curves of representative compounds of the present invention were generated using the Lexis software interface (developed at J&J). Data were calculated as % of the control glutamate response, defined as the response that is generated upon addition of an EC80-equivalent concentration of glutamate.
In general terms: Binding of GTPγS marks nucleotide exchange on a G protein.

Molecules are shown by their SMILES. Counter-ions that a name gives are not always drawn.

T1 sequence (Q14416 19-872): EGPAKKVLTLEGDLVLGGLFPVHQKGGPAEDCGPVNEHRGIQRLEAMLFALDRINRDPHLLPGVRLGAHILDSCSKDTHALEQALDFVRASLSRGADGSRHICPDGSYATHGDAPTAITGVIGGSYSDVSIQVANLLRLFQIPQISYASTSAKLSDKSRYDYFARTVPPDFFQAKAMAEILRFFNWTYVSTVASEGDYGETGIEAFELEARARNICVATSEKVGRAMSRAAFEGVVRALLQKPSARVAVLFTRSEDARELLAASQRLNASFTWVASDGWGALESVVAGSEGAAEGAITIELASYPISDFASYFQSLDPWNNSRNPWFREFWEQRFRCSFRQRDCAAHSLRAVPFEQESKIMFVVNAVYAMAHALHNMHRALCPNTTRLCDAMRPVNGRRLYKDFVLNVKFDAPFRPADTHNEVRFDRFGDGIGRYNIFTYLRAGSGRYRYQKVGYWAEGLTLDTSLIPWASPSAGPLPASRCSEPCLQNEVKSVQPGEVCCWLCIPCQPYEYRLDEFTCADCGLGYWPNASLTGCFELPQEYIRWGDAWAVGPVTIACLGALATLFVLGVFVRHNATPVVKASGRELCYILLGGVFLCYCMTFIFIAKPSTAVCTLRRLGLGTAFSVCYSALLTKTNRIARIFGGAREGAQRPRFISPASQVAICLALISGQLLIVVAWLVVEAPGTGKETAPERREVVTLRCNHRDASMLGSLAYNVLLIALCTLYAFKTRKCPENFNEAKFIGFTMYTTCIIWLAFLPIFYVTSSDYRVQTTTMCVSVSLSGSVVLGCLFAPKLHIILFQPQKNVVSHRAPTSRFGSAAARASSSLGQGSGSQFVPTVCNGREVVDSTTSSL

Usually melting point stands for the temperature, or range, at which the solid turns liquid. In general, Emax refers to the greatest response seen or fitted, relative to the assay's reference. Consider `COc1cc(-c2cnn3c2C(=O)N(c2ccc(C(F)(F)F)cc2)C[C@@H]3C)cc(C)n1` [compound 145], for which the melting point was determined as 57.5 °C. At human mGlu2 receptor, the IC50 is 1.86e-08 M and the Emax was 105%.

As to `C[C@H]1CN(c2ccc(C(F)(F)F)cc2)C(=O)c2c(-c3ccc(C#N)nc3)cnn21` [compound 151], the melting point was 157.6 °C. Moreover, on human mGlu2 receptor, the IC50 was 1.2e-06 M and the Emax is 103%.

`CC(O)c1cc(-c2cnn3c2C(=O)N(c2ccc(Cl)c(Cl)c2)C[C@@H]3C)ccn1` (stereo partly drawn) [compound 111, (7S)-5-(3,4-Dichlorophenyl)-3-[2-(1-hydroxyethyl)-4-pyridyl]-7-methyl-6,7-dihydropyrazolo[1,5-a]pyrazin-4-one]: the melting point is over 300 °C. Moreover, on human mGlu2 receptor, the IC50 is 2.95e-07 M and the Emax was 108%.

`C[C@H]1CN(c2ccc(C(F)(F)F)cc2)C(=O)c2c(-c3ccnc(N4CC(O)C4)c3)cnn21` [compound 101] registered a melting point of over 300 °C. Further, on human mGlu2 receptor, the IC50 is 4.07e-07 M and the Emax is 109%.

Turning to `Cc1cc(-c2cnn3c2C(=O)N(c2cccc(C(F)(F)F)c2)C[C@@H]3C)ccn1` [compound 23], the melting point turned out to be 139.2 °C. For the same molecule, at human mGlu2 receptor, the IC50 is 1.1e-07 M and the Emax is 104%.

In turn, `Cc1cc(-c2cnn3c2C(=O)N(c2ccc(C(F)(F)F)cc2)CC3C(C)O)ccn1` (stereo not drawn) [compound 217] gave a melting point of 255.5 °C. Moreover, at human mGlu2 receptor, the IC50 is 4.47e-06 M and the maximum response (Emax) stood at 97%.

`C[C@H]1CN(c2ccc(C(F)(F)F)cn2)C(=O)c2c(-c3ccnc(F)c3)cnn21` [compound 197] showed a melting point of 146.6 °C. On human mGlu2 receptor, the IC50 is 1.51e-07 M and the Emax is 104%.

The molecule `Cc1cc(-c2cnn3c2C(=O)N(c2ccc(C4(C(F)(F)F)CC4)cc2)C[C@@H]3C)ccn1` [compound 136] displayed a melting point of 126.2 °C. Also, on human mGlu2 receptor, the IC50 was 4.37e-08 M and the Emax turned out to be 102%.

Turning to `C[C@H]1CN(c2ccc(C(F)(F)F)cc2)C(=O)c2c(-c3ccnc(N4CCNCC4)c3)cnn21.Cl` [compound 175, (7S)-7-Methyl-3-(2-piperazin-1-yl-4-pyridyl)-5-[4-(trifluoromethyl)phenyl]-6,7-dihydropyrazolo[1,5-a]pyrazin-4-one hydrochloride salt], the melting point stood at 220.8 °C. For the same molecule, at human mGlu2 receptor, the IC50 was 1.35e-06 M and the Emax came out at 102%.

Molecule `C[C@H]1CN(c2ccc(C(F)(F)F)cc2)C(=O)c2c(-c3ccnc(N)c3)cnn21` [compound 71, (7S)-3-(2-Aminopyridin-4-yl)-7-methyl-5-[4-(trifluoromethyl)phenyl]-6,7-dihydropyrazolo[1,5-a]pyrazin-4(5H)-one] had a melting point of 218.9 °C. Further, on human mGlu2 receptor, the IC50 is 9.77e-08 M and the Emax is 103%.

With `CC[C@@H]1CN(c2ccc(C(F)(F)F)cc2)C(=O)c2c(-c3ccnc(C)c3)cnn21` [compound 129], the melting point came out at 135.1 °C. Besides, at human mGlu2 receptor, the IC50 is 6.92e-07 M and the Emax came to 100%.

Consider `COCc1cc(-c2cnn3c2C(=O)N(c2ccc(C(F)(F)F)cc2)C[C@@H]3C)ccn1` (as salt: HCl) [compound 22], for which the melting point is 282.3 °C.

Consider `CCOc1ccc(N2C[C@H](C)n3ncc(-c4ccnc(C)c4)c3C2=O)cc1Cl` (as salt: HCl) [compound 17], for which the melting point is over 300 °C.

`C[C@H]1CN(c2ccc(C(F)(F)F)cc2)C(=O)c2c(-c3ccnc(N4CCCCC4)c3)cnn21` (as salt: HCl) [compound 107]: the melting point amounted to 294 °C.

In turn, `CC(C)Oc1cc(-c2cnn3c2C(=O)N(c2ccc(C(F)(F)F)cc2)C[C@@H]3C)ccn1` (as salt: HCl) [compound 138] displayed a melting point of 173.9 °C.

As to `CCOc1cc(-c2cnn3c2C(=O)N(c2ccc(Cl)c(Cl)c2)C[C@@H]3C)ccn1` (as salt: HCl) [compound 133], the melting point came out at 191.5 °C.

Molecule `Cc1cc(-c2cnn3c2C(=O)N(c2ccc(SC(F)(F)F)cc2)C[C@@H]3C)ccn1` (as salt: HCl) [compound 236] yielded a melting point of over 300 °C.

`CC(C)Oc1cc(-c2cnn3c2C(=O)N(c2ccc(Cl)c(Cl)c2)C[C@@H]3C)ccn1` (as salt: HCl) [compound 137] came in with a melting point of 193.8 °C.

As to `COc1ccc(N2C[C@H](C)n3ncc(-c4ccnc(C)c4)c3C2=O)cc1Cl` (as salt: HCl) [compound 20], the melting point amounted to 293.6 °C.

Regarding `Cc1cc(-c2cnn3c2C(=O)N(c2ccc(C(C)(C)C)cc2)C[C@@H]3C)ccn1` [compound 141], at human mGlu2 receptor, the IC50 is 6.17e-08 M and the maximal effect (Emax) was found to be 102%.

With `C[C@H]1CN(c2ccc(C(F)(F)F)cc2)C(=O)c2c(-c3ccnc(F)c3)cnn21` [compound 247], on human mGlu2 receptor, the IC50 is 3.02e-08 M and the Emax was found to be 109%.

On to `COc1nc(N2C[C@H](C)n3ncc(-c4ccnc(N(C)C)c4)c3C2=O)ccc1C(F)(F)F` [compound 250], for which, on human mGlu2 receptor, the IC50 is 3.98e-09 M and the maximal response (Emax) was 120%.

Regarding `Cc1cc(-c2cnn3c2C(=O)N(c2ccc(F)c(F)c2)C[C@@H]3C)ccn1` [compound 25], on human mGlu2 receptor, the IC50 was 1.45e-07 M and the Emax amounted to 103%.

Consider `COCC1CN(c2ccc(C(F)(F)F)cc2)C(=O)c2c(-c3ccnc(C)c3)cnn21` (single isomer, unassigned) [compound 121], for which, on human mGlu2 receptor, the IC50 was 1.62e-05 M and the “GTPγS - hmGluR2 anGT Emax” value stood at 75%.

On to `Cc1cc(-c2cnn3c2C(=O)N(c2cc(Cl)c(Cl)cn2)C[C@@H]3C)ccn1` [compound 203], for which, at human mGlu2 receptor, the IC50 was 6.76e-09 M and the Emax was 105%.

With `Cc1cc(-c2cnn3c2C(=O)N(c2cc(F)cc(OC(F)F)c2)C[C@@H]3C)ccn1` [compound 69], at human mGlu2 receptor, the IC50 is 5.37e-08 M and the Emax is 103%.

Turning to `CCN(C)c1cc(-c2cnn3c2C(=O)N(c2ccc(C(F)(F)F)c(Cl)c2)C[C@@H]3C)ccn1` [compound 254], at human mGlu2 receptor, the IC50 is 1.7e-09 M and the Emax was found to be 109%.

As for `Cc1cc(-c2cnn3c2C(=O)N(c2ccc(Cl)c(C)n2)C[C@@H]3C)ccn1` [compound 196], at human mGlu2 receptor, the IC50 was 5.01e-08 M and the Emax was determined as 107%.

For `C[C@H]1CN(c2ccc(C(F)(F)F)cc2)C(=O)c2c(-c3ccnc(N4CC(F)C4)c3)cnn21` [compound 94], on human mGlu2 receptor, the IC50 is 5.5e-08 M and the maximum response (Emax) came out at 108%.

`COc1ccc(N2C[C@H](C)n3ncc(-c4ccnc(C)c4)c3C2=O)cc1` (as salt: HCl) [compound 38] showed a melting point of 294 °C.

With `Cc1cc(-c2cnn3c2C(=O)N(c2ccc4c(c2)OCCO4)C[C@@H]3C)ccn1` [compound 42], on human mGlu2 receptor, the IC50 was 3.09e-06 M and the Emax is 102%.

`C[C@H]1CN(c2ccc(C(F)(F)F)c(OCCF)c2)C(=O)c2c(-c3ccnc(N(C)C)c3)cnn21` [compound 249]: on human mGlu2 receptor, the IC50 is 8.32e-09 M and the Emax turned out to be 109%.

In the case of `C[C@H]1CN(c2ccc(C(F)(F)F)c(CF)c2)C(=O)c2c(-c3ccnc(N(C)C)c3)cnn21` [compound 246], on human mGlu2 receptor, the IC50 was 4.17e-09 M and the Emax stood at 116%.

For the molecule `COCC1CN(c2ccc(Cl)c(Cl)c2)C(=O)c2c(-c3ccnc(C)c3)cnn21` (single isomer, unassigned) [compound 118], on human mGlu2 receptor, the IC50 is 1.95e-08 M and the Emax came out at 105%.

Turning to `CNc1cc(-c2cnn3c2C(=O)N(c2ccc(Cl)c(Cl)c2)CC3CF)ccn1` (single isomer, unassigned) [compound 185], at human mGlu2 receptor, the IC50 is 6.03e-09 M and the “GTPγS - hmGluR2 anGT Emax” value came out at 104%.

(Values after US10106542B2, “Substituted 6,7-dihydropyrazolo[1,5-a]pyrazines as negative allosteric modulators of mGluR2 receptors” (Janssen Pharmaceutica NV, priority 2013, dated 2018).)
